Among the data in ChEMBL document CHEMBL4732114, “Design and structural optimization of novel 2H-benzo[h]chromene derivatives that target AcrB and reverse bacterial multidrug resistance” (Eur J Med Chem, 2021) are fold change (FC) values, retold here.

In this assay the target is T1, Multidrug efflux pump subunit AcrB (Escherichia coli (strain K12)) (UniProt P31224).
T1 sequence (whole entry): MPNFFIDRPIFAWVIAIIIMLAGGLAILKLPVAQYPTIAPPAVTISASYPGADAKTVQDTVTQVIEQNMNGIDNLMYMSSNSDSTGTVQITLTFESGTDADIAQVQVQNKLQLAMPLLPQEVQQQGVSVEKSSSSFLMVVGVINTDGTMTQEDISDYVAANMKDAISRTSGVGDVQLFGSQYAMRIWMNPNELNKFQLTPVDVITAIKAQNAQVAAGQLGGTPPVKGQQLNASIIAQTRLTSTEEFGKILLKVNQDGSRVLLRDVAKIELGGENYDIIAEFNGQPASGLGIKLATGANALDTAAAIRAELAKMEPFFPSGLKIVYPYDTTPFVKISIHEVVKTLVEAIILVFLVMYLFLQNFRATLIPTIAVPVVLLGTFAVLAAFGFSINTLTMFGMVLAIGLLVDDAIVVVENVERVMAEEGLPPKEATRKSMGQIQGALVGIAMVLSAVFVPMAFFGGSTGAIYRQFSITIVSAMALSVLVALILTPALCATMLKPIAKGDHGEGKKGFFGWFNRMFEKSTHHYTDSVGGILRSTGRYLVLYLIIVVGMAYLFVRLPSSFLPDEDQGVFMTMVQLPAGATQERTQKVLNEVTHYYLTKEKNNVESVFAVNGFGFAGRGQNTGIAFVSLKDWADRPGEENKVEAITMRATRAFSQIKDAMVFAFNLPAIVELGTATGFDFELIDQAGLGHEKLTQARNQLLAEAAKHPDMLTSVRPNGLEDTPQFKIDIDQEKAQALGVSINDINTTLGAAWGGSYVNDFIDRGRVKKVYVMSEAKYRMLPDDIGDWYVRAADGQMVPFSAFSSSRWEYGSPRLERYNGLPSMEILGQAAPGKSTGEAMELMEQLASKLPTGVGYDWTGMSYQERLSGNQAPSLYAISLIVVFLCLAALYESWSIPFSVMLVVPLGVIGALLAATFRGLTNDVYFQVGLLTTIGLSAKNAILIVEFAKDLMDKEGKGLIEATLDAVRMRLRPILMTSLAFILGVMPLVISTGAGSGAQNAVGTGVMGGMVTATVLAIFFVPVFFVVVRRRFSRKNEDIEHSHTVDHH
Kind of assay: Inhibition of AcrB in multidrug-resistant Escherichia coli BW25113 assessed as potentiation of levofloxacin-induced antibacterial activity by measuring fold change in levofloxacin MIC at 128 ug/ml by checkerboard titration method relative to levofloxacin MIC. To be noted: dose 128.0 µg/ml.

Each structure is given as a SMILES string. A value given as a limit tells only on which side of the number the result lay.

Turning to `Cc1ccc(COc2cccc3c4c(c(-c5nnco5)cc23)CCC(C)(C)O4)cc1`, the fold change (FC) is below 16.
